Measurements from patent US6841684B2, “Imidiazoles having reduced side effects” (Allergan, Inc., priority 1997, dated 2005).
Like-named read-outs stand apart in the source and are kept apart here.

What was measured:
[1] = system: conscious cynomolgus monkeys; assay: Sedation score during the IOP experiments; type: in vivo, cynomolgus monkey; set-up: key to Sedation (0-4): 0=alert, typical vocalization, movement, etc.; 1=calm, less movement; 2=slightly sedated, some vocalization, responsive to stimulation; 3=sedated, no vocalization, some response to stimulation; 4=asleep
Protocol: At the same time, sedation was measured and assessed according to the following score: 0=alert, typical vocalization, movement, etc.; 1=calm, less movement; 2=slightly sedated, some vocalization, responsive to stimulation; 3=sedated, no vocalization, some response to stimulation; 4=asleep.

[2] = system: cynomolgus monkeys with sustained elevated IOP; assay: IOP lowering in conscious monkeys, eyes made hypertensive by argon laser photocoagulation; type: in vivo, cynomolgus monkey; settings: Macaca fascicularis, topical, single 50 μl eye drop, up to 6 hours, read-out: Maximum % Decrease From Pretreatment Levels Hypertensive Eye (IOP); for inhibition in vivo at 0.1 %: ocular dose 0.1%; for inhibition in vivo at 0.3 %: ocular dose 0.3%; for inhibition in vivo at 1 %: ocular dose 1%
From the text: Measurements of IOP were made in fully conscious female cynomolgus monkeys weighing 3-4 kg with sustained elevated IOP that was produced in the right eye by argon laser photocoagulation of the trabecular meshwork. Animals were usable for experiments 2 months following surgery. During the experiments, monkeys sat in specially designed chairs (Primate Products, San Francisco), and were fed orange juice and fruit as needed. A 30R model Digilab pneumatonometer (Alcon, Tex.) was used to measure IOP.
Twenty five μl of an anesthetic (proparacaine) was topically applied to each monkey before IOP measurements to minimize ocular discomfort due to tonometry. Two baseline measurements were made prior to instillation of the drugs, followed by periodic measurements up to 6 hours post-instillation. The test compounds were administered unilaterally as a single 50 μl eye drop; the contralateral eyes received an equal volume of saline.

[3] = system: conscious cynomolgus monkeys; assay: Cardiovascular side effects (blood pressure, heart rate) after i.v. administration; type: in vivo, cynomolgus monkey; settings: up to 6 hours, + with * = increase from base levels
From the text: Cardiovascular measurements were made in a different group of monkeys using a BP 100S automated sphygmomanometer (Nippon Colin,. Japan).

[4] = molecular target: T1, rat α2B (RNG gene) receptor (Rattus norvegicus, UniProt P19328); assay: RSAT (Receptor Selection and Amplification Technology) assay, alpha 2B; type: cell-based; settings: ratio of maximal effect to that of standard full agonist oxymetazoline
T1 construct: expressed in transfected cells; host or cells: NIH-3T3 cells, calcium phosphate cotransfection
T1 sequence (P19328 1-453): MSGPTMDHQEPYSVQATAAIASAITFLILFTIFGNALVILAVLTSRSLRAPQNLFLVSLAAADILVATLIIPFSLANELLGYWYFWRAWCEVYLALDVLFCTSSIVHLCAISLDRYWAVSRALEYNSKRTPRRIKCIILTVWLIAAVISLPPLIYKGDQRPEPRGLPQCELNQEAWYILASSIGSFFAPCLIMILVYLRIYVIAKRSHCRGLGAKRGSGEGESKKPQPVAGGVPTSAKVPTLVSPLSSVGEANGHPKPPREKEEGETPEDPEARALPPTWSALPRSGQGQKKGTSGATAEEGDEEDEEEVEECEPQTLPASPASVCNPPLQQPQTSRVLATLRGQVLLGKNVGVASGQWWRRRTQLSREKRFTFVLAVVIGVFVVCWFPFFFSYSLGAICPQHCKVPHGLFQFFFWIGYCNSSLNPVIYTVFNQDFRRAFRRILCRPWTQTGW
From the text: This preferential activity can be determined in a variety of functional assays such as Cyclic AMP Production, Shimizu et al, J. Neurochem. […] In the study below, the RSAT assay on cells that have been transiently transfected with the human α2A (c10 gene), rat α2B (RNG gene) and human α2C (c4 gene) receptors was used.
The assay measures a receptor-mediated loss of contact inhibition that results in selective proliferation of receptor-containing cells in a mixed population of confluent cells. The increase in cell number is assessed with an appropriate transfected marker gene such as b-galactosidase, the activity of which can be easily measured in a 96-well format. Receptors that activate the G protein, Gq, elicit this response. Alpha2 receptors, which normally couple to Gi, activate the RSAT response when coexpressed with a hybrid Gq protein that has a Gi receptor recognition domain, called Gq/i5^2.
NIH-3T3 cells are plated at a density of 2×10^6 cells in 15 cm dishes and maintained in Dulbecco's modified Eagle's medium supplemented with 10% calf serum. One day later, cells are cotransfected by calcium phosphate precipitation with mammalian expression plasmids encoding p-SV-b-galactosidase (5-10 mg), receptor (1-2 mg) and G protein (1-2 mg). 40 mg salmon sperm DNA may also be included in the transfection mixture. Fresh media is added on the following day and 1-2 days later, cells are harvested and frozen in 50 assay aliquots. Cells are thawed and 100 ml added to […] aliquots of various concentrations of drugs in triplicate in 96-well dishes. Incubations continue 72-96 hr at 37°. After washing with phosphate-buffered saline, b-galactosidase enzyme activity is determined by adding 200 ml of the chromogenic substrate (consisting of 3.5 mM o-nitrophenyl-b-D-galactopyranoside and 0.5% nonidet P-40 in phosphate buffered saline), incubating overnight at 30° and measuring optical density at 420 nm. The absorbence is a measure of enzyme activity, which depends on cell number and reflects a receptor-mediated cell proliferation. The EC50 and maximal effect of each drug at each alpha2 receptor is determined. The efficacy or intrinsic activity is calculated as a ratio of the maximal effect of the drug to the maximal effect of a standard full agonist for each receptor subtype.

Row | SMILES | Sedation (0-4) ([1]; ocular dose 0.3%) | Sedation (0-4) ([1]; ocular dose 1%) | Maximum % Decrease From Pretreatment Levels, Heart Rate ([3]; i.v. 500 μg/kg) | Maximum % Decrease From Pretreatment Levels, Mean Arterial Blood Pressure ([3]; i.v. 500 μg/kg) | Intrinsic Activity Relative to Oxymetazoline, Alpha 2B [4] | inhibition in vivo at 0.3 % [2] [%] | inhibition in vivo at 1 % [2] [%] | other results
1 | c1ccc2c(c1)CC(Cc1c[nH]cn1)CO2 (stereo not shown) [Example B-2d, 4(5)-chroman-3-ylmethyl-1H-imidazole] | 0 | 0 | +15.5 ± 3.4* % | +8.9 ± 3.4* % | 0.6 | – | – | Sedation (0-4) ([1]; ocular dose 0.1%): 0; inhibition in vivo at 0.1 % ([2]; 6 h): 22 ± 4.6%; inhibition in vivo at 0.3 % ([2]; 6 h): 17 ± 4.2%; inhibition in vivo at 1 % ([2]; 6 h): 18.1 ± 5.2%
2 | c1ccc2c(c1)CCC(Cc1c[nH]cn1)C2 (stereo not shown) [Example B-3b, 4(5)-(1,2,3,4-tetrahydronaphthalen-2-ylmethyl)-1H-imidazole] | 0 | – | – | – | 0.7 | – | – | Sedation (0-4) ([1]; ocular dose 0.1%): 0; inhibition in vivo at 0.1 % ([2]; 6 h): 25.9 ± 3.5%; inhibition in vivo at 0.3 % ([2]; 6 h): 31.2 ± 4.3%; Maximum % Decrease From Pretreatment Levels, Heart Rate ([3]; i.v. 50 μg/kg): 10.0 ± 2.8%; Maximum % Decrease From Pretreatment Levels, Mean Arterial Blood Pressure ([3]; i.v. 50 μg/kg): 2.4 ± 4.3%
3 | Cl.c1ccc2c(c1)CC(Cc1c[nH]cn1)CS2 (stereo not shown) [Example B-6, 4(5)-thiochrom-3-ylmethyl-1H-imidazole, hydrogen chloride salt] | 0 | 0 | – | – | 0.35 | – | – | inhibition in vivo at 0.3 % ([2]; 6 h): 13.8 ± 2.4%; inhibition in vivo at 1 % ([2]; 6 h): 22.1 ± 6.3%
4 | c1nc(CC2CCc3sccc3C2)c[nH]1 (stereo not shown) [Example B-9a, 4(5)-(4,5,6,7-tetrahydrobenzo[b]thiophen-5-ylmethyl)-1H-imidazole] | 0 | 0 | +23.8 ± 4.4* % | +10.8 ± 3.2* % | 0.46 | 24.8 ± 3.3 | 26.8 ± 5.4 | Sedation (0-4) ([1]; ocular dose 0.03%): 0; Sedation (0-4) ([1]; ocular dose 0.1%): 0; inhibition in vivo at 0.03 % ([2]; ocular dose 0.03%): 17.6 ± 1.7%; inhibition in vivo at 0.1 % [2]: 26.7 ± 6.1%
5 | c1nc(Cc2ccsc2)c[nH]1 [Example C-1, 4(5)-thiophen-3-ylmethyl-1H-imidazole] | – | 0 | +11 ± 9* % | +5 ± 8* % | 0.83 | – | 25 ± 4 | Sedation (0-4) ([1]; ocular dose 3%): 0; inhibition in vivo at 3 % ([2]; ocular dose 3%): 29 ± 4%; Maximum % Decrease From Pretreatment Levels, Heart Rate ([3]; i.v. 50 μg/kg): 12 ± 4%; Maximum % Decrease From Pretreatment Levels, Mean Arterial Blood Pressure ([3]; i.v. 50 μg/kg): 12.8 ± 12%
6 | c1csc(Cc2c[nH]cn2)c1 [Example C-2, 4(5)-thiophen-2-ylmethyl-1H-imidazole] | – | 0 | 6.5 ± 2.9% | 6.6 ± 1.7% | 1.3 | – | 29.6 ± 5.5 | –
7 | Cc1ccc(Cc2c[nH]cn2)s1 [Example C-3, 4(5)-(5-methylthiophen-2-ylmethyl)-1H-imidazole] | 0 | 0 | 10.6 ± 3.4% | 2.3 ± 2.7% | 0.88 | 20.6 ± 4.8 | 25 ± 6.4 | –
8 | Clc1ccc(Cc2c[nH]cn2)s1 [Example C-4, 4(5)-(5-chlorothiophen-2-ylmethyl)-1H-imidazole] | 0 | 0 | 10.9 ± 3.6% | 5.3 ± 2.9% | 0.82 | 17.7 ± 4 | 29.3 ± 4.9 | –
9 | Cc1ccc(Cc2c[nH]cn2)o1 [Example C-7, 4(5)-(5-methylfuran-2-ylmethyl)-1H-imidazole] | – | 0 | 6.1 ± 3.7% | 3.0 ± 3.9% | 0.73 | – | – | inhibition in vivo at 1 % ([2]; 6 h): 32.3 ± 5.7%
10 | c1ccc(Cc2c[nH]cn2)cc1 [Example C-8, 4(5)-benzyl-1H-imidazole] | – | 0 | 16.6 ± 1.9% | 5.5 ± 2.7% | 0.9 | – | 31.2 ± 3.3 | –
11 | c1ccc2sc(Cc3c[nH]cn3)cc2c1 [Example C-9, 4(5)-benzo[b]thiophen-2-ylmethyl-1H-imidazole] | 0 | 0 | 5.9 ± 3.3% | 6.0 ± 2.2% | 0.88 | 13.7 ± 4.5 | 25.1 ± 4.9 | Maximum % Decrease From Pretreatment Levels, Heart Rate ([3]; i.v. 3.0 μg/kg): 9.4 ± 3.0%; Maximum % Decrease From Pretreatment Levels, Mean Arterial Blood Pressure ([3]; i.v. 3.0 μg/kg): 5.0 ± 2.3%; Maximum % Decrease From Pretreatment Levels, Heart Rate ([3]; i.v. 17 μg/kg): +9.4 ± 1.8* %; Maximum % Decrease From Pretreatment Levels, Mean Arterial Blood Pressure ([3]; i.v. 17 μg/kg): 1.0 ± 4.1%; Maximum % Decrease From Pretreatment Levels, Heart Rate ([3]; i.v. 50 μg/kg): 16 ± 3.2%; Maximum % Decrease From Pretreatment Levels, Mean Arterial Blood Pressure ([3]; i.v. 50 μg/kg): 0.1 ± 3.8%
12 | c1ccc(C2C3CCC(C3)C2/N=C2/NCCO2)cc1 [Example D-1, oxazolidin-2-ylidene-(3-phenylbicyclo[2.2.1]hept-2-yl) amine] | – | 0 | – | – | 0.47 | – | 25.6 ± 3.9 | –
13 | c1ccc2c(c1)CC[C@@H](Cc1c[nH]cn1)C2 [Example J-3, (R)-4(5)-(1,2,3,4-tetrahydronaphthalen-2-ylmethyl)-1H-imidazole] | 0 | – | +10.6 ± 6.0* % | +1.0 ± 2.1* % | 1 | – | – | Sedation (0-4) ([1]; ocular dose 0.03%): 0
